Data from article PMC8072159, “5-Bis-(2,6-difluoro-benzylidene) Cyclopentanone Acts as a Selective 11β-Hydroxysteroid Dehydrogenase one Inhibitor to Treat Diet-Induced Nonalcoholic Fatty Liver Disease in Mice” (Frontiers in Pharmacology, 2021).
“Also recorded” adds a separate entry of the source.

What was measured:
Assay type in all cases: biochemical
11β-HSD2 [1] = molecular target: T1, 11β-HSD2 (Mus musculus, UniProt P51661); test: 11β-HSD2 activity in mouse kidney microsomes; conditions: 100 μM
T1 construct: from tissue; host or cells: mouse kidney microsomes prepared in house
T1 sequence (P51661 1-386): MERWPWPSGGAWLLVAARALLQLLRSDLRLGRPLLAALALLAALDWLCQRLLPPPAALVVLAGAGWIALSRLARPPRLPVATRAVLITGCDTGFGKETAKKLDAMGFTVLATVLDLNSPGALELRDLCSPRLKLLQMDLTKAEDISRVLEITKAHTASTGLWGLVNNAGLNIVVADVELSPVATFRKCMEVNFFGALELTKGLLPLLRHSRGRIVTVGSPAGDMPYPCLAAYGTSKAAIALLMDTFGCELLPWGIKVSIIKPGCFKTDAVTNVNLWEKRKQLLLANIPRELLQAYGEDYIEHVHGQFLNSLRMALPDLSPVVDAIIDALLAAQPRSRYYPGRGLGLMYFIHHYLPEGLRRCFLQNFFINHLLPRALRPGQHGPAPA
Description: (§1) Preparation of Rat and Mouse Liver and Kidney Microsomes
(§2) The liver and kidney microsomes were prepared as previously described ([Guo et al., 2012]). Briefly, the tissue was homogenized in […] phosphate buffered saline (PBS) containing 0.25 M sucrose, and the nuclei and large cell debris were removed by centrifugation at 1500 g for 10 min. The supernatant was transferred to a tube and the mitochondria were removed by centrifugation at 10, 000 × g for 30 min. The supernatant was transferred to an ultracentrifuge tube and centrifuged twice at 105,000 × g, the resulting microsomal precipitate was collected. The protein content was measured by the BCA kit according to the manufacturer’s instruction. The protein concentration was adjusted to 20 mg/ml. These proteins were used to measure 11β-HSD1 and 11β-HSD2 activities.
(§3) Measurement of 11β-HSD2 Activity in Rat, Mouse, and Human Kidney Microsomes
(§4) The 11β-HSD2 assay was based on rat, mouse, and human kidney microsomes, as previously described ([Ge et al., 2005]). In brief, the 11β-HSD2 activity assay tube contained 25 nM substrate (cortisol for humans, CORT for rats and mice). […] The percentage conversion of cortisol to cortisone (humans) or CORT to 11DHC (rats and mice) was calculated by dividing the radioactive count of an 11keto-steroid product by the total count associated with both substrate and product.

11β-HSD1 [2] = molecular target: T2, 11β-HSD1 (Homo sapiens, UniProt P28845); test: 11β-HSD1 reductive activity in human liver microsomes
T2 construct: purchased Gentest (Woburn, MA); host or cells: human liver microsomes (tissue)
Description: Determination of 11β-HSD1 in Rat, Mouse, and Human Liver Microsomes
The reductive activity of 11β-HSD1 in rat, mouse, and human liver microsomes was measured as previously described ([Ge et al., 2005]). In short, the 11β-HSD1 activity assay tube contained 25 nM substrate, 11DHC (for rats or mice) or cortisone (for humans), spiked with 60,000 dpm of each 3H-steroid. 11β-HSD1 activity was measured using 11-DHC or cortisone as a substrate. A 25 nM steroid substrate is used because the concentration is within the physiological concentration range. Rat (10 μg), mouse (10 μg) and human (4 μg) liver microsomes were incubated with 11-ketosteroids, 0.2 mM NADPH, and various concentrations (10^−10–10^−5 M) of drug candidates at 37 °C for 60–90 min. The inhibitory ability of the chemical relative to the control (DMSO solvent) was measured. […] The reaction was stopped by adding 10 µL of 1 mM glycyrrhetinic acid and 1 ml of ice-cold ether. […] The steroids in chloroform and methanol (90:10, v/v) were chromatographically separated on a thin layer plate, and radioactivity was measured using a scanning radiometer (System AR2000, Bioscan Inc., Washington, DC, United States). The percentage of 11DHC being converted to CORT or cortisone being converted to cortisol can be calculated by dividing the radioactivity count of 11-OH-steroids by the total count. […]

11β-HSD1 [3] = molecular target: T3, 11β-HSD1 (Mus musculus, UniProt P50172); test: 11β-HSD1 reductive activity in mouse liver microsomes
T3 construct: from tissue; host or cells: mouse liver microsomes prepared in house (probably from Kunming mice)
Description: as §1
as §2, with “activities. […]” for “activities.”
The reductive activity of 11β-HSD1 in rat, mouse, and human liver microsomes was measured as previously described ([Ge et al., 2005]). […] 11β-HSD1 activity was measured using 11-DHC or cortisone as a substrate. […] The inhibitory ability of the chemical relative to the control (DMSO solvent) was measured. […] The steroids in chloroform and methanol (90:10, v/v) were chromatographically separated on a thin layer plate, and radioactivity was measured using a scanning radiometer (System AR2000, Bioscan Inc., Washington, DC, United States). […]

11β-HSD2 [4] = molecular target: T4, 11β-HSD2 (Rattus norvegicus, UniProt P50233); test: 11β-HSD2 activity in rat kidney microsomes; conditions: 100 μM
T4 construct: from tissue; host or cells: rat kidney microsomes prepared in house
T4 sequence (P50233 1-400): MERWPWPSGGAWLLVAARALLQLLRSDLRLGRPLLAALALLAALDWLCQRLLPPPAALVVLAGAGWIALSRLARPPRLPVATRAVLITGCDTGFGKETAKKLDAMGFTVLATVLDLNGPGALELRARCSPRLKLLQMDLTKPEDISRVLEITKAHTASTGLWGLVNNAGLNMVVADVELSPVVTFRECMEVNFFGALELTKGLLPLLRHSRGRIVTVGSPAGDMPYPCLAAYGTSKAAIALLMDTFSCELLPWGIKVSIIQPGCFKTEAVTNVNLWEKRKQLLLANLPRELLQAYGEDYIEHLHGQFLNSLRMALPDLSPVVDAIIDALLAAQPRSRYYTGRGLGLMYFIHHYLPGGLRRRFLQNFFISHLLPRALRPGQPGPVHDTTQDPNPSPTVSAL
Description: as §1, §2, §3, §4

T2 sequence (P28845 whole entry): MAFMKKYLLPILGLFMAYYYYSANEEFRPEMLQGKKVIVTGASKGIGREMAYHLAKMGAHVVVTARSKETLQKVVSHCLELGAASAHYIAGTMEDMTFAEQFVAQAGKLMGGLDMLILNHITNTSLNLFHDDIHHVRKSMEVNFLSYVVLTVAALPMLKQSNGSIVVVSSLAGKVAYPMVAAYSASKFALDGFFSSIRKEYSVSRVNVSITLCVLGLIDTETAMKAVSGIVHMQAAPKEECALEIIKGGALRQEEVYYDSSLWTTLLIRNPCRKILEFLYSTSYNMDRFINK
T3 sequence (P50172 whole entry): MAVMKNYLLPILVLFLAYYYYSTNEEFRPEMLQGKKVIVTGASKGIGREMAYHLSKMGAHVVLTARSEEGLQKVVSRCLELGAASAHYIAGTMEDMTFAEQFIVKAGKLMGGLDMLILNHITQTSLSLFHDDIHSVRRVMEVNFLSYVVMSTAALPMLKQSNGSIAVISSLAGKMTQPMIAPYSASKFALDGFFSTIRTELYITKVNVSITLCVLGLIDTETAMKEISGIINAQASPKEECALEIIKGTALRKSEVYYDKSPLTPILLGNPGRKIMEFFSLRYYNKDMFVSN

inhibition at 100 µM (11β-HSD1 [2]; 100 μM, initial screening, read-out: 11β-HSD1 inhibition, human enzyme): 85.4 ± 1.67%
IC50 (11β-HSD1 [2]; human liver microsomes, 25 nM cortisone, NADPH): 621 nM
inhibition at 100 µM (11β-HSD1 [3]; 100 μM, initial screening, read-out: 11β-HSD1 inhibition, mouse enzyme): 94.5 ± 0.97%
IC50 (11β-HSD1 [3]; mouse liver microsomes, 25 nM 11DHC, NADPH): 244 nM
Compound: O=C1/C(=C/c2c(F)cccc2F)CC/C1=C\c1c(F)cccc1F [WZS08, (2E,5E)-2,5-bis(2,6-difluorobenzylidene) Cyclopentanone]
effect on 11β-HSD2 activity, mouse (11β-HSD2 [1]): did not affect; also recorded: almost no effect
effect on 11β-HSD2 activity, rat (11β-HSD2 [4]): did not affect; also recorded: almost no effect
